Measurements published in PubChem BioAssay (NCI).
“And” between values parts separate entries of the source, which are not always exact repeats. Equal values may be shown once.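 Interpolation was linear, between the two tested concentrations surrounding the appropriate level; five concentrations were tested over 48 hours in 96-well plates. The concentration for 50% growth inhibition is given as GI50. At the TGI there is no net growth.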

tested on: MDA-MB-468 breast; experiment: DTP human tumour cell line panel, 48 h

| SMILES | GI50 | TGI |
| --- | --- | --- |
| C#C[C@@]1(O)[C@@H](CO)O[C@@H](n2cc(C(F)(F)F)c3c(N)ncnc32)[C@@H]1O | 280 nM | 1.9 µM |
| Cc1nc2sc3c(N)ncnc3c2c(C)c1C | > 25000 nM | > 25 µM |
| CN(C)Cc1ccc(NC(=O)c2cncc(C#Cc3cnc(N)c4ncccc34)c2)cc1F | 7720 nM | 25.7 µM |
| c1ccc(-c2n(Cc3ccc4ccccc4c3)c3ccccc3[n+]2Cc2ccc3ccccc3c2)cc1 | 134 nM | 0.703 µM |
| COc1cc(-c2nc3ccccc3o2)cc(CN2CCCCC2)c1O | 3240 nM | 22.8 µM |
| COc1ccc(S(=O)(=O)Nc2c(/C=C\c3cc(OC)c(OC)c(OC)c3)ccc(OC)c2O)cc1 | 43.9 nM | 17.6 µM |
| Cn1cc(C2=C(c3cn(CCCN)c4ccccc34)C(=O)NC2=O)c2ccccc21 | 3700 nM | 7.94 µM |
| CCN(CC)CCN1c2nc3ccccc3cc2Sc2cc3ccccc3nc21 | 1790 nM | 5.33 µM |
| Nc1cc(F)ccc1NC(=O)c1ccc(NC(=O)C/C=C/c2cccnc2)cn1 | 911 nM | 2.5 µM |
| Clc1cccc(CNc2c3ccccc3nc3ccccc23)c1 | 1280 nM | 3.13 µM |
| CC[C@H](C)[C@H](NC(=O)[C@H]1CCCCN1C)C(=O)N(C)[C@H](C[C@@H](OC(C)=O)c1cccc(C(=O)N[C@@H](Cc2ccccc2)C[C@H](C)C(=O)O)n1)C(C)C | 0.353 nM and 2.5 nM | – |
| C=C1C(=O)O[C@H]2[C@H]1CC/C(COC(=O)/C=C\C(=O)NCc1ccc(Cn3c(=O)sn(CCI)c3=O)cc1)=C\CC[C@@]1(C)O[C@@H]21 | 2390 nM | 5.85 µM |
| NCCCNc1nc2ccccc2c2c(=O)c3cccc(Cl)c3sc12 | 837 nM | 2.25 µM |
| COc1ccc(C2C(C#N)=C(N)Oc3c2sc2c(Br)cccc32)cc1 (configuration not stated) | 1860 nM | 5.55 µM |
| Oc1[nH]c2ccccc2c1/C=c1/ccc2c(c1)N=C(c1ccc(C(F)(F)F)cc1)N=2 | 2390 nM | 14.7 µM |
| O=C1Nc2ccccc2/C1=C\c1nc(-c2ccccc2F)n2ccccc12 | 1540 nM | 5.51 µM |
| Cc1ccc(Cl)c(NS(=O)(=O)c2ccc(-c3cnc(C4CC4)o3)cc2)c1 | 45.2 nM | 7.11 µM |
| CNC(=O)c1c(F)cccc1Nc1nc(Nc2cc3c(cc2OC)CCN3C(=O)CN(C)C)nc2[nH]ccc12 | 2340 nM | 8.85 µM |
| C=CCNC1=C2C[C@@H](C)C[C@H](OC)[C@H](O)[C@@H](C)/C=C(\C)[C@H](OC(N)=O)[C@@H](OC)/C=C\C=C(/C)C(=O)NC(=CC1=O)C2=O | 209 nM | 1.83 µM |
| COc1ccc2c(O)c(/C=C3\N=Nc4ncccc43)oc2c1C[C@@H]1CCNC[C@H]1F | 308 nM | 1.43 µM |
| Cn1c(=O)c(Oc2ccc(F)cc2F)cc2cnc(N[C@@H]3CCOC3)nc21 | > 25000 nM | > 25 µM |

| SMILES | GI50 | TGI |
| --- | --- | --- |
| COc1ccc(C(=O)c2cc3c(N)c(C(=O)Nc4cccc(Br)c4C)sc3nc2C)cc1 | 40.4 nM | – |
| CCC(=O)N1C/C(=C/c2ccc(Br)cc2)C(=O)/C(=C/c2ccc(Br)cc2)C1 | 371 nM | 1.23 µM |
| COc1ccccc1[As]=[As]c1ccccc1OC (configuration not stated) | 19.9 nM | 0.0474 µM |
| CCN(CC)c1ccc(-c2cc(-c3cc(OC)c(OC)c(OC)c3)nc(N3CCC(O)CC3)c2C#N)cc1 | 987 nM | 3.21 µM |
| N#Cc1nc(C#N)c(Sc2ccccc2)c(Sc2ccccc2)c1Sc1ccccc1 | 1910 nM | 5.8 µM |
| Fc1ccc(-c2nn3ccccc3c2-c2ccncc2)cc1 | 11000 nM | > 25 µM |
| CCOc1ccc(C(C[N+](=O)[O-])Sc2ccccc2N)cc1 (configuration not stated) | 2110 nM | 4.79 µM |
| CS(=O)(=O)c1cccc(Nc2ncc3cc(-c4ccccc4Cl)ccc3n2)c1 | 2070 nM | 19.6 µM |
| Nc1ncc(-c2ccc3ncnc(N4CCc5ccc(Cl)cc54)c3c2)cc1C(F)(F)F | 299 nM | 2.68 µM |
| c1ccc(Oc2ccc(Nc3ncc(-c4ccccc4)o3)cc2)cc1 | > 25000 nM | > 25 µM |
| COc1ccc(-c2cc(-c3ccc(Cl)cc3)nc(NCCCCNc3ccnc4cc(Cl)ccc34)n2)cc1 | 1720 nM | 4.3 µM |
| N=C(N)c1ccc(-c2ccc(-c3ccc4ccccc4c3)s2)s1 | 2380 nM | 5.2 µM |
| CCN1C(=O)N(CC)C2C1NN=c1s/c(=C3\C(=O)N(C4CCCC4)c4ccccc43)c(=O)n12 (configuration not stated) | 325 nM | 2.45 µM |
| COc1cc2ncnc(Nc3ccc(Oc4ccnc(C)c4)c(C)c3)c2cc1NC(=O)CC1CCSS1 (configuration not stated) | 784 nM | 1.73 µM |
| O=C(NCCOCCOCCOCCNC(=O)c1cc2c(o1)C(=O)c1ccccc1C2=O)NC12CC3CC(CC(C3)C1)C2 | 1080 nM | 4.37 µM |
| CCCCCCCCCCNCCSS(=O)(=O)O | 2450 nM | 6.28 µM |
| O=C(Nc1cc(F)c(F)cc1C(=O)O)c1ccc(-n2ccnc2)nn1 | > 100000 nM | > 100 µM |
| CCCCOc1ccc(/C=N/Nc2cc(C)nc3ccc(Br)cc23)cc1 | 1670 nM | 3.22 µM |
| Clc1ccc2c(c1)N(C1CCCN(Cc3ccccc3)C1)c1ccccc1S2 (configuration not stated) | 2690 nM | 9.51 µM |
| O=C1Cc2cc(CCn3cncn3)c(Cl)cc2N1 | 2180 nM | 9.54 µM |
| O=C(/C=C/c1ccccn1)c1ccc(OCc2nnc(-c3ccc(Cl)cc3)o2)cc1 | 1710 nM | 3.56 µM |
